Patent US20240299352A1, “COMBINATION THERAPIES WITH SETD2 INHIBITORS” (Epizyme, Inc., priority 2021, published 2024)

What was measured:
Format in all cases: cell-based
GRANTA519 = assay: Co-treatment combination study with Cpd. No. 15, CellTiter-Glo viability, Loewe Volume; conditions: in combination with Cpd. No. 15, seven days, mantle cell lymphoma cell line GRANTA519 (ACC 342)
Experimental: (§1) Mantle cell lymphoma (MCL) and diffuse large B-cell lymphoma (DLBCL) cell line cultures in log-linear growth rate were treated with combinations of Cpd. No. 15 and combination partners according to a co-treatment model. […] No. 15 and the combination partner. […] Each combination was tested in quadruplicate wells. The final concentration of DMSO (vehicle) in the assay was 0.1% v/v. Fifty microliters of cell line suspension were directly dispensed to the assay-ready plates with an automated multichannel dispenser on to 384-well assay-ready plates. Assay plates were incubated for seven days unless otherwise indicated in a humidified atmosphere of 5% CO2 at 37° C. Quantification of the effect of single agents or combinations on cell viability was performed through measurement of cellular adenosine triphosphate (ATP) using a CellTiter-Glo® (Promega, Madison, WI) Luminescent Cell Viability Assay. Luminescence was detected using a SpectraMax M5 microplate reader (Molecular Devices, Sunnyvale, CA). Concentration response plots were generated in GraphPad Prism version 7.0 for Windows, GraphPad Software, (La Jolla, California) and curves fitted to a four-parameter logistic model with variable slope. Percent of inhibition was calculated at each treatment concentration.

JEKO1 = assay: as above; conditions: in combination with Cpd. No. 15, seven days, mantle cell lymphoma cell line JEKO1 (CRL-3006)
Experimental: as §1

WSUDLCL2 = assay: as above; conditions: in combination with Cpd. No. 15, seven days, DLBCL cell line WSUDLCL2
Experimental: as §1

SUDHL5 = assay: as above; conditions: in combination with Cpd. No. 15, seven days, DLBCL cell line SUDHL5
Experimental: as §1

WSUNHL = assay: as above; conditions: in combination with Cpd. No. 15, seven days, DLBCL cell line WSUNHL
Experimental: as §1

MAVER1 = assay: as above; conditions: in combination with Cpd. No. 15, seven days, mantle cell lymphoma cell line MAVER1 (CRL-3008)
Experimental: as §1

DOHH2 = assay: as above; conditions: in combination with Cpd. No. 15, seven days, DLBCL cell line DOHH2
Experimental: as §1

JVM2 = assay: as above; conditions: in combination with Cpd. No. 15, seven days, mantle cell lymphoma cell line JVM2 (CRL-3002)
Experimental: as §1

Pfeiffer = assay: as above; conditions: in combination with Cpd. No. 15, seven days, DLBCL cell line Pfeiffer
Experimental: as §1

REC1 = assay: as above; conditions: in combination with Cpd. No. 15, seven days, mantle cell lymphoma cell line REC1 (CRL-3004)
Experimental: as §1

SUDHL6 = assay: as above; conditions: in combination with Cpd. No. 15, seven days, DLBCL cell line SUDHL6
Experimental: as §1

DB = assay: as above; conditions: in combination with Cpd. No. 15, seven days, DLBCL cell line DB
Experimental: as §1

RL = assay: as above; conditions: in combination with Cpd. No. 15; 6-Day Cotreatment; DLBCL cell line RL
Experimental: as §1

SUDHL4 = assay: as above; conditions: in combination with Cpd. No. 15, seven days, DLBCL cell line SUDHL4
Experimental: as §1

KARPAS422 = assay: as above; conditions: in combination with Cpd. No. 15, seven days, DLBCL cell line KARPAS422
Experimental: as §1

HT = assay: as above; conditions: in combination with Cpd. No. 15, seven days, DLBCL cell line HT
Experimental: as §1

SUDHL2 = assay: as above; conditions: in combination with Cpd. No. 15, seven days, DLBCL cell line SUDHL2
Experimental: as §1

Z138 = assay: as above; conditions: in combination with Cpd. No. 15, seven days, mantle cell lymphoma cell line Z138 (CRL-3001)
Experimental: as §1

SUDHL10 = assay: as above; conditions: in combination with Cpd. No. 15; 5-Day Cotreatment; DLBCL cell line SUDHL10
Experimental: as §1

WILL2 = assay: as above; conditions: in combination with Cpd. No. 15, seven days, DLBCL cell line WILL2
Experimental: as §1

TOLEDO = assay: as above; conditions: in combination with Cpd. No. 15, seven days, DLBCL cell line TOLEDO
Experimental: as §1

SUDHL8 = assay: as above; conditions: in combination with Cpd. No. 15, seven days, DLBCL cell line SUDHL8
Experimental: as §1

MINO = assay: as above; conditions: in combination with Cpd. No. 15, seven days, mantle cell lymphoma cell line MINO (CRL-3000)
Experimental: as §1

[1] = test system: diffuse large B-cell lymphoma (DLBCL) cell lines; assay: Co-treatment combination study with Cpd. No. 15, further cell lines (Table F), CellTiter-Glo viability, Loewe Volume
Experimental: as §1

SMILES | Combination effect (Loewe Volume) GRANTA519 (GRANTA519) | Combination effect (Loewe Volume) JEKO1 (JEKO1) | Combination effect (Loewe Volume) WSUDLCL2 (WSUDLCL2) | Combination effect (Loewe Volume) SUDHL5 (SUDHL5) | Combination effect (Loewe Volume) WSUNHL (WSUNHL) | Combination effect (Loewe Volume) MAVER1 (MAVER1) | Combination effect (Loewe Volume) DOHH2 (DOHH2) | Combination effect (Loewe Volume) JVM2 (JVM2) | Combination effect (Loewe Volume) Pfeiffer (Pfeiffer) | Combination effect (Loewe Volume) REC1 (REC1) | Combination effect (Loewe Volume) SUDHL6 (SUDHL6) | Combination effect (Loewe Volume) DB (DB) | Combination effect (Loewe Volume) RL (RL) | Combination effect (Loewe Volume) SUDHL4 (SUDHL4) | Combination effect (Loewe Volume) KARPAS422 (KARPAS422) | Combination effect (Loewe Volume) HT (HT) | Combination effect (Loewe Volume) SUDHL2 (SUDHL2) | Combination effect (Loewe Volume) Z138 (Z138) | Combination effect (Loewe Volume) SUDHL10 (SUDHL10) | Combination effect (Loewe Volume) WILL2 (WILL2) | also measured
C=CC(=O)N1CCC[C@@H](n2nc(-c3ccc(Oc4ccccc4)cc3)c3c(N)ncnc32)C1 [Ibrutinib, ibrutinib] | Additivity (between 1 and −1: additivity) | Synergy (VLoewe>1: synergy) | Additivity (between 1 and −1: additivity) | No Effect | Additivity (between 1 and −1: additivity) | Synergy (VLoewe>1: synergy) | Synergy (VLoewe>1: synergy) | Additivity (between 1 and −1: additivity) | No Effect | Additivity (between 1 and −1: additivity) | Synergy (VLoewe>1: synergy) | No Effect | Additivity (between 1 and −1: additivity) | Synergy (VLoewe>1: synergy) | No Effect | No Effect | No Effect | No Effect | No Effect | Additivity (between 1 and −1: additivity) | Combination effect (Loewe Volume) TOLEDO (TOLEDO): No Effect; Combination effect (Loewe Volume) SUDHL8 (SUDHL8): No Effect; Combination effect (Loewe Volume) MINO (MINO): Synergy (VLoewe>1: synergy)
COc1cccc2c1C(=O)c1c(O)c3c(c(O)c1C2=O)C[C@@](O)(C(=O)CO)C[C@@H]3O[C@H]1C[C@H](N)[C@H](O)[C@H](C)O1 [Doxorubicin, doxorubicin] | Additivity (between 1 and −1: additivity) | Additivity (between 1 and −1: additivity) | Additivity (between 1 and −1: additivity) | Additivity (between 1 and −1: additivity) | Additivity (between 1 and −1: additivity) | Additivity (between 1 and −1: additivity) | Additivity (between 1 and −1: additivity) | Additivity (between 1 and −1: additivity) | Additivity (between 1 and −1: additivity) | Additivity (between 1 and −1: additivity) | Synergy (VLoewe>1: synergy) | Additivity (between 1 and −1: additivity) | Additivity (between 1 and −1: additivity) | Additivity (between 1 and −1: additivity) | Additivity (between 1 and −1: additivity) | Additivity (between 1 and −1: additivity) | Additivity (between 1 and −1: additivity) | Additivity (between 1 and −1: additivity) | Additivity (between 1 and −1: additivity) | Additivity (between 1 and −1: additivity) | Combination effect (Loewe Volume) TOLEDO (TOLEDO): Synergy (VLoewe>1: synergy); Combination effect (Loewe Volume) SUDHL8 (SUDHL8): Additivity (between 1 and −1: additivity); Combination effect (Loewe Volume) MINO (MINO): Additivity (between 1 and −1: additivity); Combination effect with Cpd. No. 15 (Loewe Volume class), Ri1 ([1]; co-treatment with Cpd. No. 15, cell line Ri1 (Cat. No. 96090512-1VL)): Synergy (VLoewe>1: synergy); Combination effect with Cpd. No. 15 (Loewe Volume class), TMD8 ([1]; co-treatment with Cpd. No. 15, cell line TMD8 (Cat. No. M-097)): Additivity (between 1 and −1: additivity); Combination effect with Cpd. No. 15 (Loewe Volume class), WILL1 ([1]; co-treatment with Cpd. No. 15, cell line WILL1 (Cat. No. ACC 651)): Additivity (between 1 and −1: additivity)
